Format in all cases: cell-based
In experiment [1] the test system is Gram-positive bacteria including S. aureus, S. pyogenes and S. pneumoniae. The experiment in a line: Broth micro dilution assay, Gram-positive bacteria. The conditions noted are these: for antimicrobial activity against other Gram-positive bacteria: S. aureus (ATCC 25925), S. pyogenes, S. pneumoniae, values not shown. The protocol: (§1) Staphylococcus aureus ATCC 29213 obtained from stock cultures stored at −70° C. at the Sansom Institute (University of South Australia, Adelaide, SA, Australia) was used as the test microorganism in a bioassay guided fractionation process. […] All bacteria were grown on blood agar plates (Colombia agar-CM331, Oxoid Limited, Basingstoke, Hampshire, United Kingdom) supplemented with 5% v/v sheep blood) at 37° C. The Streptococcus species were incubated at 37° C. in the presence of 5% carbon dioxide (CO2). Brain Heart Infusion broth (CM 225, Oxoid Limited) was used for the experiments to determine the minimum inhibitory concentration (MIC) and minimum bactericidal concentration (MBC) for the Streptococcus species while cation adjusted MH II broth (Becton Dickinson France SAS, Le Point de Claix, France) was used for the Staphylococcus species and the Gram-negative bacteria tested.
(§2) Broth micro dilution was used to determine the MIC of extract, fractions and pure compounds against S. aureus ATCC 29213. Duplicate two-fold serial dilutions of test sample (100 μL/well) were prepared in sterile round-bottom 96-well plates (Sarstedt Australia Pty Ltd, Technology Park, SA, Australia), in the appropriate broth containing 2% DMSO. Bacterial cell suspension (100 μL) corresponding to 1×10^6 CFU/mL was added in all wells with the exception of wells containing saline, test sample and media sterility controls, respectively. Controls for bacterial growth without test sample were also included on each plate. Plates were then placed on a shaker for 10 min and incubated at 37° C. overnight. […] Vancomycin and gentamicin (Sigma, St Louis, Mo., United States of America) were used as positive controls for the Gram-positive and Gram-negative bacteria, respectively. Following the determination of the MIC, the MBC was determined by transferring a 10 μL aliquot from each of the wells at the concentration corresponding to the MIC and those concentrations above into 190 μL of appropriate broth in a sterile 96-well plate. The plates were incubated under the same conditions as in the MIC experiment with the Streptococcus species incubated in the presence of 5% CO2. The presence or absence of bacterial growth was determined by visual inspection. The MBC was considered to be the lowest concentration of the compound at which no growth occurred.

In experiment [2] the test system is Staphylococcus aureus ATCC 29213. The experiment in a line: Broth micro dilution assay for MIC and MBC. The conditions noted are these: S. aureus ATCC 29213. Here is the method:
All bacteria were grown on blood agar plates (Colombia agar-CM331, Oxoid Limited, Basingstoke, Hampshire, United Kingdom) supplemented with 5% v/v sheep blood) at 37° C. The Streptococcus species were incubated at 37° C. in the presence of 5% carbon dioxide (CO2).
as §2, with “Duplicate” for “Broth micro dilution was used to determine the MIC of extract, fractions and pure compounds against S. aureus ATCC 29213. Duplicate”, “The plates were incubated under the same conditions as in the MIC experiment with the Streptococcus species incubated in the presence of 5% CO2.” left out

Experiment [3] deals with Escherichia coli ATCC 25922. Description: Broth micro dilution assay for MIC and MBC. The conditions noted are these: ATCC25922, E. coli ATCC 25922, maximum concentration tested 250 μg/mL. Here is the method:
as §1, §2

Experiment [4] has as its system Pseudomonas aeruginosa ATCC 27853. Description: Broth micro dilution assay for MIC and MBC. The conditions noted are these: ATCC27853, P. aeruginosa ATCC 27853, maximum concentration tested 250 μg/mL. Here is the method: as §1, §2
The test system of experiment [5] is Salmonella typhimurium ATCC 13311. The experiment in a line: Broth micro dilution assay for MIC and MBC. The conditions noted are these: Salmonella enterica; S. typhimurium ATCC 13311; maximum concentration tested 250 μg/mL. Here is the method: as §1, §2
The test system of experiment [6] is Staphylococcus aureus ATCC 25923. The experiment in a line: Broth micro dilution assay for MIC and MBC. The conditions noted are these: ATCC25923, S. aureus ATCC 25923. Here is the method: as §1, §2
Experiment [7] has as its system Streptococcus pneumoniae ATCC 49619. Description: Broth micro dilution assay for MIC and MBC. The conditions noted are these: ATCC49619, S. pneumoniae ATCC 49619. The protocol: as §1, §2
Experiment [8] concerns Streptococcus pyogenes ATCC 10389. Description: Broth micro dilution assay for MIC and MBC. The conditions noted are these: ATCC10389, S. pyogenes ATCC 10389. The protocol:
as §1, §2

The subject of experiment [9] is Gram-negative bacteria tested. Description: Broth micro dilution assay, Gram-negative bacteria. The conditions noted are these: all Gram-negative bacteria tested, maximum concentrations tested. Here is the method:
as §1
Broth micro dilution was used to determine the MIC of extract, fractions and pure compounds against S. aureus ATCC 29213. […] Following the determination of the MIC, the MBC was determined by transferring a 10 μL aliquot from each of the wells at the concentration corresponding to the MIC and those concentrations above into 190 μL of appropriate broth in a sterile 96-well plate. […] The presence or absence of bacterial growth was determined by visual inspection. […]

The mark [10] stands for this setting: range over Gram-positive bacteria of Table 2.

Values after ≈ are worked out from the molar mass of the structure shown. Read-outs that look alike come from different tables or passages of the source. A value given as a limit tells only on which side of the number the result lay.

One may read the MIC as the lowest concentration found to suppress growth. Usually MBC stands for the lowest tested concentration that kills the bacteria rather than only halting them.

For the molecule `CC(C)=CCCC(C)C1CCC(C)c2cc(CO)c(O)cc21` (stereo not shown) [Compound 7, 8,19-dihydroxyserrulat-14-ene], the “antimicrobial activity against other Gram-positive bacteria” value in [1] was “showed antimicrobial activity”.

As for `CC(=O)OCC(CCC=C(C)C)C1CCC(C)c2ccc(C(=O)O)c(O)c21` (stereo not shown) [Compound 3, 20-acetoxy-8-hydroxyserrulat-14-en-19-oic acid], the MIC in experiment [2] turned out to be 125 µg/mL (≈ 334 µM).

“8,20-dihydroxyserrulat-14-en-19-oic acid [Compound 4]” returned an MIC in [2] of 250 µg/mL.

The molecule “8,20-diacetoxyserrulat-14-en-19-oic acid [Compound 5]” registered an MIC in experiment [2] of 250 µg/mL.

On to `CC(C)=CCCC(C)C1CCC(C)c2cc(C(=O)O)c(O)cc21` (stereo not shown) [Compound 8, 8-hydroxyserrulat-14-en-19-oic acid], for which the “antimicrobial activity against other Gram-positive bacteria” value in experiment [1] is “showed antimicrobial activity”.

For the molecule `CC(C)=CCCC1COC2=C(C)C(=O)C(=O)c3cccc1c32` (stereo not shown) [Compound 2, 9-methyl-3-(4-methyl-3-pentenyl)-2,3-dihydronaphtho[1,8-bc]pyran-7,8-dione], the MBC is 125 µg/mL (≈ 422 µM) in [2] (Staphylococcus aureus, ATCC29213); over 250 µg/mL in experiment [3]; over 250 µg/mL in experiment [4]; over 250 µg/mL in experiment [5]; 15.6 µg/mL (≈ 52.6 µM) in [6]; 7.8 µg/mL (≈ 26.3 µM) in experiment [7]. For the same molecule, the MBC in [8] is 15.6 µg/mL (≈ 52.6 µM); in experiment [1] (setting [10]), 7.8 to 125 µg/mL (≈ 26.3 to 422 µM). Besides, the MIC was 15.6 µg/mL (≈ 52.6 µM) in [2] (Staphylococcus aureus, ATCC29213, read-out: MIC); over 250 µg/mL in experiment [3]; over 250 µg/mL in [4]; over 250 µg/mL in experiment [5]; 7.8 µg/mL (≈ 26.3 µM) in [6]; 7.8 µg/mL (≈ 26.3 µM) in [7]. For the same molecule, the MIC in [8] was 7.8 µg/mL (≈ 26.3 µM); in experiment [1] (setting [10]), 7.8 to 15.6 µg/mL (≈ 26.3 to 52.6 µM). The “activity against Gram-negative bacteria” value in [9] was “Activity was not observed”.

The record behind these values is patent US20100311912A1, “ANTIMICROBIAL SURFACES” (priority 2008, published 2010).
